This is an account of results in patent US20260174871A1, “THIXOTROPIC DELIVERY SYSTEMS” (UNIVERSITY OF MONTANA, priority 2019, published 2026).

Assay [1] deals with S. aureus 13709. Kind of assay: Kill kinetics of ciprofloxacin with or without gels. The assay is classed as cell-based, Staphylococcus aureus. How it is done: (§1) Growth was measured by sampling media placed above the thixogel and then quantifying colony forming units (CFU's) by serial dilution.
Assay [2] has as its system P. aeruginosa 27853. The assay is described as above. The assay is classed as cell-based, Pseudomonas aeruginosa. How it is done:
as §1

For assay [3], the system named is S. aureus 13709. In words: Minimum Inhibitory Concentration (MIC) of antibiotics with or without thixogel. The format is cell-based, Staphylococcus aureus. The text has this:
(§2) The Minimum Inhibitory Concentration (MIC) defines the lowest antibiotic concentration that inhibits 99.9% of bacterial growth.

The subject of assay [4] is P. aeruginosa 27853. Described as above. The format is cell-based, Pseudomonas aeruginosa.
Description: as §2

[5] abbreviates: ciprofloxacin 30 μg/mL loaded in HA and SF gels.

In brackets after ≈: the same amount, converted by molar mass. Read-outs that look alike come from different tables or passages of the source.

One may read the inhibition as the change of the read-out against control, counted positive when it falls.

For the compound `O=C(O)c1cn(C2CC2)c2cc(N3CCNCC3)c(F)cc2c1=O` [Ciprofloxacin, ciprofloxacin], the inhibition at 30 µg/mL in the assay on S. aureus 13709 [1] (Staphylococcus aureus, 13709, gel loaded drug, 30 μg/mL, read-out: inhibition of bacterial growth) amounted to 100%; in the assay with P. aeruginosa 27853 [2] (Pseudomonas aeruginosa, 27853, gel loaded drug, 30 μg/mL, read-out: inhibition of bacterial growth), 100%. The “time to complete inhibition of bacterial growth” value with S. aureus 13709 [1] (setting [5]) and with P. aeruginosa 27853 [2] (setting [5]) was “around four” each time. The “inhibition of bacterial growth” value was “more than 3 log10” in the assay on S. aureus 13709 [1] (gel loaded drug, 30 μg/mL) and “more than 3 log10” with P. aeruginosa 27853 [2] (gel loaded drug, 30 μg/mL).

For `CN[C@H](CC(C)C)C(=O)N[C@H]1C(=O)N[C@@H](CC(N)=O)C(=O)N[C@H]2C(=O)N[C@H]3C(=O)N[C@H](C(=O)N[C@H](C(=O)O)c4cc(O)cc(O)c4-c4cc3ccc4O)[C@H](O)c3ccc(c(Cl)c3)Oc3cc2cc(c3O[C@@H]2O[C@H](CO)[C@@H](O)[C@H](O)[C@H]2O[C@H]2C[C@](C)(N)[C@H](O)[C@H](C)O2)Oc2ccc(cc2Cl)[C@H]1O` [Vancomycin, vancomycin], the “potency / coverage of both pathogenic bacteria” value with S. aureus 13709 [3] (S. aureus (Gram positive)) and in the assay on P. aeruginosa 27853 [4] (P. aeruginosa (Gram negative)) was “did not give coverage of both” in each case. Also, the MIC with S. aureus 13709 [3] (Staphylococcus aureus, 13709, read-out: Minimum Inhibitory Concentrations (MIC), S. aureus 13709, No Gel) was 2 µg/mL (≈ 1.38 µM); in the assay with S. aureus 13709 [3] (Staphylococcus aureus, 13709, read-out: Minimum Inhibitory Concentrations (MIC), S. aureus 13709, antibiotic delivered in HA thixogel), 16 µg/mL (≈ 11 µM); in the assay on S. aureus 13709 [3] (Staphylococcus aureus, 13709, read-out: Minimum Inhibitory Concentrations (MIC), S. aureus 13709, antibiotic delivered in SF thixogel) it was 4 µg/mL (≈ 2.76 µM); in the assay with P. aeruginosa 27853 [4] (Pseudomonas aeruginosa, 27853, read-out: Minimum Inhibitory Concentrations (MIC), P. aeruginosa 27853, No Gel), above 4 µg/mL; in the assay with P. aeruginosa 27853 [4] (Pseudomonas aeruginosa, 27853, read-out: Minimum Inhibitory Concentrations (MIC), P. aeruginosa 27853, antibiotic delivered in HA thixogel) it was above 32 µg/mL; in the assay with P. aeruginosa 27853 [4] (Pseudomonas aeruginosa, 27853, read-out: Minimum Inhibitory Concentrations (MIC), P. aeruginosa 27853, antibiotic delivered in SF thixogel) it was above 32 µg/mL.

Regarding gentamycin, the “effect of the gels (SF and HA) upon potency” value in the assay on S. aureus 13709 [3] (S. aureus) and with P. aeruginosa 27853 [4] (P. aeruginosa) was “deleterious effect upon potency” throughout. Besides, the “Minimum Inhibitory Concentrations (MIC)” value was determined as 1 µg/mL in the assay on S. aureus 13709 [3] (S. aureus 13709, No Gel); 32 µg/mL in the assay on S. aureus 13709 [3] (S. aureus 13709, antibiotic delivered in HA thixogel); 8 µg/mL in the assay on S. aureus 13709 [3] (S. aureus 13709, antibiotic delivered in SF thixogel); 2 µg/mL with P. aeruginosa 27853 [4] (P. aeruginosa 27853, No Gel); 32 µg/mL in the assay on P. aeruginosa 27853 [4] (P. aeruginosa 27853, antibiotic delivered in HA thixogel); 32 µg/mL in the assay with P. aeruginosa 27853 [4] (P. aeruginosa 27853, antibiotic delivered in SF thixogel).

As for `C[C@@H](O)[C@H]1C(=O)N2C(C(=O)O)=C(SCCN=CN)C[C@H]12` [Imipenem, imipenem], the MIC with S. aureus 13709 [3] (Staphylococcus aureus, 13709, S. aureus 13709, No Gel, read-out: Minimum Inhibitory Concentrations (MIC)) was 0.032 µg/mL (≈ 0.107 µM); with S. aureus 13709 [3] (Staphylococcus aureus, 13709, S. aureus 13709, antibiotic delivered in HA thixogel, read-out: Minimum Inhibitory Concentrations (MIC)), below 0.032 µg/mL; with S. aureus 13709 [3] (Staphylococcus aureus, 13709, S. aureus 13709, antibiotic delivered in SF thixogel, read-out: Minimum Inhibitory Concentrations (MIC)), 0.125 µg/mL (≈ 0.418 µM); in the assay on P. aeruginosa 27853 [4] (Pseudomonas aeruginosa, 27853, P. aeruginosa 27853, No Gel, read-out: Minimum Inhibitory Concentrations (MIC)) it was 2 µg/mL (≈ 6.68 µM); in the assay on P. aeruginosa 27853 [4] (Pseudomonas aeruginosa, 27853, P. aeruginosa 27853, antibiotic delivered in HA thixogel, read-out: Minimum Inhibitory Concentrations (MIC)), 4 µg/mL (≈ 13.4 µM); in the assay on P. aeruginosa 27853 [4] (Pseudomonas aeruginosa, 27853, P. aeruginosa 27853, antibiotic delivered in SF thixogel, read-out: Minimum Inhibitory Concentrations (MIC)), above 4 µg/mL.
